Data published in patent US5736556A, “Tropane-2-aldoxime derivatives as nevro transmitter reuptake inhibitors” (NeuroSearch A/S, priority 1994, dated 1998).
pIC50: −log10 of the molar value. Structures can show the parent of a compound that is named as a salt. Where two headings read alike, the source gives them in different places.

Columns and labels:
dopamine transporter [1] = target: T1, dopamine transporter (Rattus norvegicus, UniProt P23977); assay: In vitro inhibition of ^3 H-WIN 35428 binding (corpus striatum); design: species or system rat (male Wistar)
T1 construct: Corpus striatum from male Wistar rats (150-200 g) is homogenized; from tissue; host or cells: corpus striatum of male Wistar rats
Text: The compounds of the present invention have been tested for their ability to bind to the dopamine transporter in the following tests for in vitro and in vivo inhibition of ^3 H-WIN 35428.
In vitro inhibition of ^3 H-WIN 35428 binding
Dopamine transporters/uptake sites on nerve terminals presumably function to terminate neuronal signaling by removing dopamine from the synaptic cleft. The activity or presence of the dopamine transporter integral protein can be measured in vitro with synaptosomal uptake of ^3 H-dopamine or membrane binding assays with ^3 H-ligands known to bind to the transporter.
Numerous ligands of several structural types have been reported to bind at the dopamine uptake site, but it remains questionable whether their binding sites are identical to that of cocaine.
Tissue preparation: Preparations are performed at 0°-4° C. unless otherwise indicated. Corpus striatum from male Wistar rats (150-200 g) is homogenized for 5-10 sec in 10 ml NaH2 PO4 (50 mM, pH 7.4) using an Ultra-Turrax homogenizer. The suspension is centrifuged at 27,000×g for 15 min. The supernatant is discarded and the pellet is resuspended in 50 mM NaH2 PO4, pH 7.4 (1000 ml per g of original tissue) and used for binding assays.
Assay: Aliquots of 0.5 ml tissue are added to […] of ^3 H-WIN 35428 (1 nM, final concentration), mixed and incubated for 60 min at 2° C. Non-specific binding is determined using cocaine ([…], final concentration). After incubation the samples are added 5 ml of ice-cold buffer and poured directly onto Whatman GF/C glass fibre filters under suction and immediately washed with 5 ml ice-cold buffer. The amount of radioactivity on the filters is determined by conventional liquid scintillation counting. Specific binding is total binding minus non-specific binding.
25-75% inhibition of specific binding must be obtained, before calculation of an IC50. The test value is given as IC50 (the concentration (μM) of the test substance which inhibits the specific binding of ^3 H-WIN 35428 by 50%).

dopamine transporter [2] = target: T2, dopamine transporter (Mus musculus, UniProt Q61327); assay: In vivo inhibition of ^3 H-WIN 35428 binding (striatum); design: from tissue; host or cells: striatum of living female NMRI mice; species or system mice (female NMRI); details: ip, mice, inhibition of specific ^3 H-WIN 35428 binding in striatum
Protocol: All test substances used are solutions or suspensions prepared in 10% TWEEN 80. Groups of three female NMRI mice (25 g) are injected i.p. with the test substance. […] Tissues are weighed and dissolved for 36 h with 1 ml 2% sodium-laurylsulfat. The solubilized tissue is then added 2 ml of scintillation cocktail, and the amount of radioactivity per mg of tissue is counted by conventional liquid scintillation counting. Groups of untreated mice serves as controls.
The ED50 value is determined from dose response curves.
ED50 =(administered dose, mg/kg)×1/(C0 /Cx -1), where C0 is specific binding in controls and Cx is the specific binding in mice treated with test substance.

[3] = system: immobility time of mice suspended by the tail; assay: Tail Suspension; format: in vivo, mice (female NMRI); details: Mus musculus, 0.5 h, oral, 30 min before test, dose reducing the immobility to 100 sec
Protocol: A decrease in the immobility time by mice suspended in their tail is seen after systemic administration of central stimulants and by antidepressants (Steru, L., Chermat, R., Thierry, B. & Simon, P. (1985) The tail suspension test: A new method for screening antidepressants in mice. Psychopharmacology 85:367-370.).
Female NMRI mice (20-25 g) habituated to the room (12 hours light/dark) for at least 16 hours and housed 25 per cage are used. The mice are suspended by the tail with adhesive tape to a rod 30 cm above the lab. bench 30 min after an oral administation of vehicle or drug. For the next 6 min the accumulated duration of immobility defined as no movements by the body or extremities (however head movements are not defined as movements) are noted, Six mice per dose are used.
Saline or vehicle treated mice have immobility time scores between 160-180 sec in average. An ED50 -value is calculated by graphical interpolation from at least 3 doses as the dose reducing the immobility to 100 sec.

dopamine transporter [4] = target: T2, dopamine transporter; details: cited from earlier work
[5] = rat corpus striatum, ^3 H-WIN 35428 1 nM, 60 min at 2° C., read-out: in vitro IC50

T1 sequence (P23977 whole entry): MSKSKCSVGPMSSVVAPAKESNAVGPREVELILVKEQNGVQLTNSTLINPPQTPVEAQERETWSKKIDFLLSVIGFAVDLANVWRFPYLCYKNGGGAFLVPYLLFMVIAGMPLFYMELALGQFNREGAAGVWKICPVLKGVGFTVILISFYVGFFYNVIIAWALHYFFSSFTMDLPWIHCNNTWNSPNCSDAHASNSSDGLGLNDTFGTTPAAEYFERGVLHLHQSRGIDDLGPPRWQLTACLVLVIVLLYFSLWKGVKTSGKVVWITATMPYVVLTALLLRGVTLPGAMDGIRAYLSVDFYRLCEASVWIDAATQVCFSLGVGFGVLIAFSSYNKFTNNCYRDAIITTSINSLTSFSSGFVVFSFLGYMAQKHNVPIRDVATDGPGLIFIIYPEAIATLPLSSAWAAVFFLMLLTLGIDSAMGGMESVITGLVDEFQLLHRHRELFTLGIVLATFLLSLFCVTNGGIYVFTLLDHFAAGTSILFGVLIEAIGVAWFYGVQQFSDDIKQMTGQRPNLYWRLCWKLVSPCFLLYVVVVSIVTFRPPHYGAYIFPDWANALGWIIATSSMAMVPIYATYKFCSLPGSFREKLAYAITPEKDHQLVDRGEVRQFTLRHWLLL
T2 sequence (Q61327 whole entry): as the sequence (P23977 whole entry) above, with S21P, A57V, A194S, H600R, L619V counted along it

| Compound | pIC50 (dopamine transporter [1]; [5]) | ED50 (dopamine transporter [2]) [mg/kg] | ED50 [3] [mg/kg] | also measured |
| --- | --- | --- | --- | --- |
| CC(C)CON=C[C@@H]1[C@@H](c2ccc(Cl)c(Cl)c2)C[C@@H]2CC[C@H]1N2C [(1R,2R,3S)-3-(3,4-Dichlorophenyl)tropane-2-O-(2-methylpropyl)-aldoxime hydrochloride] | 7.25 | – | – | – |
| C=CCON=C[C@@H]1[C@@H](c2ccc(Cl)c(Cl)c2)C[C@@H]2CC[C@H]1N2C [(1R,2R,3S)-3-(3,4-Dichlorophenyl)tropane-2-O-(2-propenyl)-aldoxime hydrochloride] | 7.66 | – | – | – |
| C#CCON=C[C@@H]1[C@@H](c2ccc(Cl)c(Cl)c2)C[C@@H]2CC[C@H]1N2C [(1R,2R,3S)-3-(3,4-Dichlorophenyl)tropane-2-O-(2-propynyl)-aldoxime hydrochloride] | 7.72 | – | – | – |
| CN1[C@H]2CC[C@@H]1[C@H](C=NOCC1CC1)[C@@H](c1ccc(Cl)c(Cl)c1)C2 [(1R,2R,3S)-3-(3,4-Dichlorophenyl)tropane-2-O-cyclopropylmethyl-aldoxime hydrochloride] | 7.70 | – | – | – |
| CCOC(=O)CON=C[C@@H]1[C@@H](c2ccc(Cl)c(Cl)c2)C[C@@H]2CC[C@H]1N2C [(1R,2R,3S)-3-(3,4-Dichlorophenyl)tropane-2-O-ethoxycarbonylmethyl-aldoxime,hydrochloride] | 7.62 | > 10 | – | – |
| CN1[C@H]2CC[C@@H]1[C@H](C=NO)[C@@H](c1ccc(Cl)c(Cl)c1)C2 [(1R,2R,3S)-3-(3,4-Dichlorophenyl)tropane-2-aldoxime] | – | 3.8 | 0.41 | pIC50 (dopamine transporter [1]): 8.47 |
| CC(C)CON=C[C@@H]1[C@@H](c2ccc(Cl)c(Cl)c2)C[C@@H]2CC[C@H]1N2C [(1R,2R,3S)-3-(3,4-dichlorophenyl)-tropane-2-O-(2-methylpropyl)-aldoxime] | – | – | 0.8 | – |
| C=CCON=C[C@@H]1[C@@H](c2ccc(Cl)c(Cl)c2)C[C@@H]2CC[C@H]1N2C [(1R,2R,3S)-3-(3,4-dichlorophenyl)-tropane-2-O-(2-propenyl)-aldoxime] | – | – | 0.23 | – |
| C#CCON=C[C@@H]1[C@@H](c2ccc(Cl)c(Cl)c2)C[C@@H]2CC[C@H]1N2C [(1R,2R,3S)-3-(3,4-dichlorophenyl)-tropane-2-O-(2-propynyl)-aldoxime] | – | – | 0.04 | – |
| CN1[C@H]2CC[C@@H]1[C@H](C=NOCc1ccccc1)[C@@H](c1ccc(Cl)c(Cl)c1)C2 [(1R,2R,3S)-3-(3,4-dichlorophenyl)-tropane-2-O-benzyl-aldoxime, HCl] | 7.12 | > 10 | 2 | – |
| CN1[C@H]2CC[C@@H]1[C@H](C=NOCC1CC1)[C@@H](c1ccc(Cl)c(Cl)c1)C2 [(1R,2R,3S)-3-(3,4-dichlorophenyl)-tropane-2-O-cyclopropylmethyl-aldoxime] | – | – | 0.7 | – |
| COC(=O)CON=C[C@@H]1[C@@H](c2ccc(Cl)c(Cl)c2)C[C@@H]2CC[C@H]1N2C [(1R,2R,3S)-3-(3,4-dichlorophenyl)tropane-2-O-methoxycarbonylmethyl-aldoxime] | – | – | 0.25 | – |
| CON=C[C@@H]1[C@@H](c2ccc(Cl)cc2)C[C@@H]2CC[C@H]1N2C [(1R,2R,3S)-3-(4-chlorophenyl)tropane-2-O-methylaldoxime hydrochloride] | 7.32 | 1 | 0.43 | – |
| CN1[C@H]2CC[C@@H]1[C@H](C=NO)[C@@H](c1ccc(Cl)cc1)C2 [(1R,2R,3S)-3-(4-chlorophenyl)tropane-2-aldoxime] | – | 1.05 | 0.19 | pIC50 (dopamine transporter [1]): 7.89 |
| CON=C[C@@H]1[C@@H](c2ccc(C)cc2)C[C@@H]2CC[C@H]1N2C [(1R,2R,3S)-3-(4-methylphenyl)tropane-2-O-methyl-aldoxime hydrochloride] | 7.38 | – | – | – |
| CN1[C@H]2CC[C@@H]1[C@@H](C=NOCc1ccccc1)[C@@H](c1ccc(Cl)c(Cl)c1)C2 [(1R,2S,3S)-3-(3,4-dichlorophenyl)tropane-2-O-benzyl-aldoxime, hydrochloride] | – | – | 0.94 | – |
| CON=C[C@H]1[C@@H](c2ccc(Cl)c(Cl)c2)C[C@@H]2CC[C@H]1N2C [(1R,2S,3S)-3-(3,4-dichlorophenyl)tropane-2-O-methyl-aldoxime] | 8.74 | 0.37 | 0.4 | – |
| CN1[C@H]2CC[C@@H]1[C@@H](C=NO)[C@@H](c1ccc(Cl)c(Cl)c1)C2 [(1R,2S,3S)-3-(3,4-dichlorophenyl)tropane-2-aldoxime] | – | 0.56 | 0.27 | pIC50 (dopamine transporter [1]): 8.70 |
| Fc1ccc(C(OCCN2CCN(CCCc3ccccc3)CC2)c2ccc(F)cc2)cc1 [GBR 12909] | – | – | – | prevention of specific binding of ^3 H-WIN 35428 in vivo (dopamine transporter [4]): partly or completely prevented |
